Converted amounts (≈) assume the structure as drawn. The source made the active and inactive calls. No cut-off for these calls is given here.
What was measured:
[1] = tested on: K562; test: cells; format: functional, cell-based; conditions: Homo sapiens, K562, 72 h
Description: Antiproliferative activity against human K562 cells assessed as inhibition of cell viability measured after 72 hrs by real-time IncuCyte proliferation analysis

[2] = tested on: Listeria innocua; test: Antibacterial activity against Listeria innocua LMG11387 assessed as growth inhibition after 20 hrs by broth microdilution method; format: functional
[3] = tested on: Salmonella enterica subsp. enterica; test: Antibacterial activity against Salmonella enterica subsp.enterica ATCC13076 assessed as growth inhibition after 20 hrs by broth microdilution method; format: functional
[4] = Antiproliferative activity against human DND41 cells assessed as inhibition of cell viability measured after 72 hrs by real-time IncuCyte proliferation analysis; format: functional, cell-based; conditions: DND41, 72 h
[5] = tested on: Escherichia coli; test: Antibacterial activity against Escherichia coli ATCC47076 assessed as growth inhibition after 20 hrs by broth microdilution method; format: functional
[6] = tested on: Z-138; test: cells; format: functional, cell-based; conditions: Homo sapiens, Z-138, 72 h
Description: Antiproliferative activity against human Z138 cells assessed as inhibition of cell viability measured after 72 hrs by real-time IncuCyte proliferation analysis

[7] = Antiproliferative activity against human HAP1 cells assessed as inhibition of cell viability measured after 72 hrs by colorimetric MTS viability assay; format: functional, cell-based; conditions: HAP1, 72 h
[8] = tested on: CAPAN-1; test: cells; format: functional, cell-based; conditions: Homo sapiens, CAPAN-1, 72 h
Description: Antiproliferative activity against human CAPAN-1 cells assessed as inhibition of cell viability measured after 72 hrs by colorimetric MTS viability assay

[9] = tested on: NCI-H460; test: cells; format: functional, cell-based; conditions: Homo sapiens, NCI-H460, 72 h
Description: Antiproliferative activity against human NCI-H460 cells assessed as inhibition of cell viability measured after 72 hrs by colorimetric MTS viability assay

[10] = tested on: LN-229; test: Antiproliferative activity against human LN-229 cells assessed as inhibition of cell viability measured after 72 hrs by colorimetric MTS viability assay; format: functional, cell-based; conditions: LN-229, 72 h
[11] = tested on: HL-60; test: cells; format: functional, cell-based; conditions: Homo sapiens, HL-60, 72 h
Description: Antiproliferative activity against human HL-60 cells assessed as inhibition of cell viability measured after 72 hrs by real-time IncuCyte proliferation analysis

[12] = tested on: Staphylococcus aureus; test: Antibacterial activity against Staphylococcus aureus ATCC65385 assessed as growth inhibition after 20 hrs by broth microdilution method; format: functional
[13] = tested on: MV4-11; test: cells; format: functional, cell-based; conditions: Homo sapiens, MV4-11, 72 h
Description: Cytotoxicity against human MV4-11cells assessed as inhibition of cell viability measured after 72 hrs by real-time IncuCyte proliferation analysis

[14] = tested on: Jurkat; test: cells; format: functional, cell-based; conditions: Homo sapiens, 72 h
Description: Cytotoxicity against human Jurkat cells assessed as inhibition of cell viability measured after 72 hrs by real-time IncuCyte proliferation analysis

[15] = tested on: Rec1; test: cells; format: functional, cell-based; conditions: Homo sapiens, Rec1, 72 h
Description: Cytotoxicity against human REC1 cells assessed as inhibition of cell viability measured after 72 hrs by real-time IncuCyte proliferation analysis

[16] = tested on: HCT-116; test: Antiproliferative activity against human HCT-116 cells assessed as inhibition of cell viability measured after 72 hrs by colorimetric MTS viability assay; format: functional, cell-based; conditions: HCT-116, 72 h

| Structure (SMILES) | IC50 [1] | MIC50 [2] | MIC50 [3] | IC50 [4] | MIC50 [5] | IC50 [6] | IC50 [7] | IC50 [8] | IC50 [9] | IC50 [10] | IC50 [11] | MIC50 [12] | IC50 [13] | IC50 [14] | IC50 [15] | IC50 [16] |
| --- | --- | --- | --- | --- | --- | --- | --- | --- | --- | --- | --- | --- | --- | --- | --- | --- |
| CC1(C)CC[C@]2(C(=O)O)CC[C@]3(C)C(=CC[C@@H]4[C@@]5(C)Cc6nnn(Cc7ccc8cc[nH]c8c7)c6C(C)(C)[C@@H]5CC[C@]43C)[C@@H]2C1 | 69.2 µM | 90 µg/mL (≈ 148 µM) | 29 µg/mL (≈ 47.6 µM) | > 100 µM | 40.8 µg/mL (≈ 67.1 µM) | 67.4 µM | 9.2 µM | 9.4 µM | > 100 µM | 44.4 µM | 3.3 µM | 199 µg/mL (≈ 327 µM) | 21.5 µM | 2200 nM | 1800 nM | 11 µM |
| C=C(C)[C@@H]1CC[C@]2(CO)CC[C@]3(C)[C@H](CC[C@@H]4[C@@]5(C)CC[C@H](O)C(C)(C)[C@@H]5CC[C@]43C)[C@@H]12 [BETULIN] | > 100 µM | 398 µg/mL (≈ 899 µM) | inactive | > 100 µM | inactive | > 100 µM | > 100 µM | > 100 µM | > 100 µM | > 100 µM | > 100 µM | 248 µg/mL (≈ 559 µM) |  |  |  | > 100 µM |
| C=C(C)[C@@H]1CC[C@]2(CO)CC[C@]3(C)[C@H](CC[C@@H]4[C@@]5(C)Cc6nnn(Cc7cccc8[nH]ccc78)c6C(C)(C)[C@@H]5CC[C@]43C)[C@@H]12 | > 100 µM | 379 µg/mL (≈ 636 µM) | 55.5 µg/mL (≈ 93.3 µM) | > 100 µM | 99.8 µg/mL (≈ 168 µM) | > 100 µM | > 100 µM | > 100 µM | > 100 µM | > 100 µM | > 100 µM | inactive |  |  |  | > 100 µM |
| CN[C@@H]1C[C@H]2O[C@@](C)([C@@H]1OC)n1c3ccccc3c3c4c(c5c6ccccc6n2c5c31)C(=O)NC4 [STAUROSPORINE] |  |  |  | 0.0308 µM |  |  | 0.0491 µM |  |  | 0.0097 µM |  |  |  |  |  | 0.0481 µM |
| C=C(C)[C@@H]1CC[C@]2(CO)CC[C@]3(C)[C@H](CC[C@@H]4[C@@]5(C)Cc6nnn(CCc7c[nH]c8ccc(OC)cc78)c6C(C)(C)[C@@H]5CC[C@]43C)[C@@H]12 | > 100 µM | 429 µg/mL (≈ 672 µM) | 17.3 µg/mL (≈ 27 µM) | > 100 µM | 17.7 µg/mL (≈ 27.7 µM) | > 100 µM | > 100 µM | > 100 µM | > 100 µM | > 100 µM | > 100 µM | inactive |  |  |  | > 100 µM |
| CC1(C)CC[C@]2(C(=O)O)CC[C@]3(C)C(=CC[C@@H]4[C@@]5(C)CC[C@H](O)C(C)(C)[C@@H]5CC[C@]43C)[C@@H]2C1 [OLEANOLIC_ACID] | > 100 µM | 21.4 µg/mL (≈ 46.7 µM) | inactive | 65.5 µM | 392 µg/mL (≈ 859 µM) | > 100 µM | > 100 µM | 50.1 µM | > 100 µM | > 100 µM | 36.4 µM | 1.16 µg/mL (≈ 2.54 µM) |  |  |  | 32.4 µM |
| C=C(C)[C@@H]1CC[C@]2(CO)CC[C@]3(C)[C@H](CC[C@@H]4[C@@]5(C)Cc6nnn(CCc7c[nH]c8ccccc78)c6C(C)(C)[C@@H]5CC[C@]43C)[C@@H]12 | > 100 µM | inactive | 16.6 µg/mL (≈ 27.3 µM) | > 100 µM | > 20.9 µg/mL | > 100 µM | > 100 µM | > 100 µM | > 100 µM | > 100 µM | > 100 µM | inactive |  |  |  | > 100 µM |
| C[C@H]1[C@H](C)CC[C@]2(C(=O)O)CC[C@]3(C)C(=CC[C@@H]4[C@@]5(C)CC[C@H](O)C(C)(C)[C@@H]5CC[C@]43C)[C@H]12 [URSOLIC ACID] | 10.2 µM | 27 µg/mL (≈ 59.2 µM) | inactive | 13.7 µM | inactive | 9.8 µM | 71.1 µM | 8.6 µM | 16.2 µM | 47.4 µM | 9.5 µM | 1.56 µg/mL (≈ 3.42 µM) |  |  |  | 17.7 µM |
| C=C(C)[C@@H]1CC[C@]2(CO)CC[C@]3(C)[C@H](CC[C@@H]4[C@@]5(C)Cc6nnn(Cc7ccc(OC)cc7)c6C(C)(C)[C@@H]5CC[C@]43C)[C@@H]12 | > 100 µM | inactive | 32.3 µg/mL (≈ 55.1 µM) | > 100 µM | 70.6 µg/mL (≈ 121 µM) | > 100 µM | > 100 µM | > 100 µM | > 100 µM | > 100 µM | > 100 µM | inactive |  |  |  | > 100 µM |
